IC50 and effect on viability data for two compounds are collected here from patent US20130017265A1, “PARTICLES FOR MULTIPLE AGENT DELIVERY” (MASSACHUSETTS INSTITUTE OF TECHNOLOGY, priority 2009, published 2013).

For one experiment, the system named is PC3 cells. As to the kind of experiment: MTT cytotoxicity assay, PC3 cells. As to conditions: for IC50: MTT, 12 hours treatment, further 48 hours, [Pt] = 25 * [Doce]. It is filed as cell-based, human. The procedure:
(§1) The ability of the targeted drug releasing construct nanoparticles to promote cell death was determined using the MTT assay using human prostate cancer LNCaP and PC3 cells and compared against the standard compounds cisplatin and the Pt(IV)-monosuccinate prodrug. Human prostate cancer LNCaP and PC3 cells were obtained from the ATCC. […] The cells were incubated at 37° C. in 5% CO2 in RPMI growth medium supplemented with 10% fetal bovine serum and 1% penicillin/streptomycin. The cells were passaged every 3 to 4 days and restarted from the frozen stock upon reaching passage number 20. Cytotoxic activity of the constructs was evaluated using the MTT assay. Solutions of the different constructs were freshly prepared in sterile PBS before use. All platinum constructs were quantified by atomic absorption spectroscopy. LNCaP and PC3 cells were seeded on a 96-well plate in 100 μL RPMI media and incubated for 24 hours.
(§2) The cells were then treated with different constructs at varying concentrations and incubated for 12 hours at 37° C. Fresh medium was replaced after 12 hours incubation with nanoparticles, and the cells were incubated for a further 48 hours. The cells were then treated with 20 μL of 3-(4,5-dimethylthiazol-2-yl)-2,5-diphenyltetrazolium bromide (MTT) (5 mg/mL in PBS) and incubated for 5 hours. The medium was removed, the cells were lysed by adding 100 μL of DMSO, and the absorbance of the purple formazan was recorded at 550 nm using a microplate spectrophotometer. Each sample was assayed in triplicate in three independent experiments for each cell line.
On the technique in general: Tetrazolium assays rely on reduction of a dye to a coloured formazan, in cell work by metabolically active cells.

The next experiment relates to LNCaP cells. As to the kind of experiment: MTT cytotoxicity assay, LNCaP cells. It is filed as cell-based, human. To be noted: for IC50: MTT, 12 hours treatment, further 48 hours, [Pt] = 25 * [Doce]. On the procedure: as §1, §2

By IC50 is commonly meant the midpoint of a concentration-inhibition curve. A higher IC50 goes with lower potency. In the case of `N.N.[Cl][Pt][Cl]` [Cisplatin], the IC50 was 9.9 µM with PC3 cells and over 5 µM in the experiment on LNCaP cells.

For “c,c,t[Pt(NH3)Cl2(OH)(succinate)] [Pt-Monosuccinate]”, the IC50 in the experiment on PC3 cells turned out to be 36 µM; in the experiment on LNCaP cells, 106 µM. In addition, the effect on viability result in the experiment on PC3 cells (PC3 cells, compared with cisplatin, PolyPt-NP, PolyPt-NP-Apt) is “least effect on viability”; in the experiment on LNCaP cells (LNCaP cells, compared with cisplatin, PolyPt-NP, PolyPt-NP-Apt) it was “least effect on viability”.
